Source: patent US11702428B2, “Chemical compounds as inhibitors of interleukin-1 activity” (Genentech, Inc., priority 2017, dated 2023)
Where two headings read alike, the source gives them in different places.

Tests used:
NLRP3 inflammasome = NLRP3 inflammasome (Homo sapiens, UniProt Q96P20); experiment: NLRP3 inflammasome activation assay in PBMCs (LPS priming, nigericin), IL-1β by ELISA; assay type: cell-based; parameters: Human peripheral blood mononuclear cells (PBMCs); host or cells: primary human PBMCs from healthy donors
Chain of NLRP3 inflammasome (Q96P20 whole entry): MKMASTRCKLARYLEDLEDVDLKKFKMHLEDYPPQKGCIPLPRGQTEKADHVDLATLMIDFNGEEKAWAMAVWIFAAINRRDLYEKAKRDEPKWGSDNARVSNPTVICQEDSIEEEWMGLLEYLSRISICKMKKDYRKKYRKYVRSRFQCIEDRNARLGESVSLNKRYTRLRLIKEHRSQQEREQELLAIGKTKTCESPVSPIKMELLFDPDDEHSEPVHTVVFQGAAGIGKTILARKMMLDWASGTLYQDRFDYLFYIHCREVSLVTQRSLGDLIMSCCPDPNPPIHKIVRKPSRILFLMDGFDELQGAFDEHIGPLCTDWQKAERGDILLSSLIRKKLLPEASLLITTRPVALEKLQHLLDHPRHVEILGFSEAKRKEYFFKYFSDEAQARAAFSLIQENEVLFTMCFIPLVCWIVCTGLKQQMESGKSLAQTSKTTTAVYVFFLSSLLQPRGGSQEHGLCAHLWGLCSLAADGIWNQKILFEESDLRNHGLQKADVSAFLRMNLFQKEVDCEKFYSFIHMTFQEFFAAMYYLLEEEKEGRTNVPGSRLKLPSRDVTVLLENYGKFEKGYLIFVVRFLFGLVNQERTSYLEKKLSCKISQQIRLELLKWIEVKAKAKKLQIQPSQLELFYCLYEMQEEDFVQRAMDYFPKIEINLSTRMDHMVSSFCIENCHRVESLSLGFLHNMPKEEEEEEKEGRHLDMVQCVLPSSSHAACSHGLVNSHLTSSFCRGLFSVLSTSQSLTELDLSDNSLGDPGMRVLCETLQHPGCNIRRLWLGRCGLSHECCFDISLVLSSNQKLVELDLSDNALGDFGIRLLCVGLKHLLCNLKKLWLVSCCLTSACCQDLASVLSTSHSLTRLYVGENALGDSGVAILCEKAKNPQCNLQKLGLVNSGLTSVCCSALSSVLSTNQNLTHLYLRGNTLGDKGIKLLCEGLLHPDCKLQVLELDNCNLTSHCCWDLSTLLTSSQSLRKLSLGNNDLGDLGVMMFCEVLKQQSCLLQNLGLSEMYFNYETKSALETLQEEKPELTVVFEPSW
Protocol: Some of the following assays were used to determine the inhibitory activity of the compounds on the NLRP3 inflammasome using a common inflammasome activation stimuli-nigericin.
Human peripheral blood mononuclear cells (PBMCs), consisting of lymphocytes (T, B and NK cells), monocytes and dendritic cells, were freshly isolated from human peripheral blood from healthy donors. Cells were obtained through an IRB approved donor program by iXCells Biotechnologies where all the donors were tested for bacterial and viral infections. Cells were purified from peripheral blood using ficoll gradient centrifugation.
Cells were then stimulated with 10 uM Nigericin (Sigma Aldrich; InvivoGen) for 1.5 h. Plates were centrifuged at 1,500 rpm for 3 minutes to pellet cells and supernatant was transferred into new plates for subsequent experiments.
For ELISA assays cells were seeded into 96-well plates. Post study, supernatants were removed and the levels of mature IL-1β, IL-18 and TNFα (Quantikine ELISA, R&D systems) were measured in cell conditioned media by ELISA according to manufacturer's instructions.

[1] = test system: LPS and nigericin stimulated cells; experiment: cells; assay type: cell-based; conditions: for IC50: Homo sapiens, read-out: CTG protective IC50
Protocol: Viability of compound treated cells is measured using CellTiter-Glo® assay (Promega, Madison, Wis.) that measures the ATP content of cells which is proportional to the number of live cells within a well. This is a counter-screen to establish that the reduction of IL-1β levels in LPS and nigericin stimulated and compound treated cells is not due to cytotoxicity, but rather through the inhibition of the inflammasome pathway. Compounds inhibiting NRLP3 inflammasome activation ultimately increase the viability of LPS and nigericin stimulated cells by blocking NLRP3 mediated pyroptosis that would otherwise lead to cell lysis.

[2] = LPS, nigericin, read-out: PBMC IL-1β IC50
[3] = LPS and nigericin stimulated cells, CellTiter-Glo
[4] = LPS 100 ng/mL 3 h, nigericin 10 uM 1.5 h, read-out: IC50 IL-1β

Row | SMILES | IC50 (NLRP3 inflammasome; [2]) [nM] | IC50 [1, 3] [nM] | further results
1 | O=C(Nc1c2c(cc3c1CCC3)CCC2)NS(=O)(=O)c1cc2n(n1)CCNC2=O | 100 to 1000 | – | –
2 | CC(C)(C)OC(=O)NCC1COc2c(S(=O)(=O)NC(=O)Nc3c4c(cc5c3CCC5)CCC4)cnn2C1 (stereo not drawn) | < 100 | < 100 | –
3 | O=C(Nc1c(C2CC2)cc(Cl)cc1C1CC1)NS(=O)(=O)c1cnn2c1OCCC2 | 100 to 1000 | 100 to 1000 | –
4 | CO[C@H]1COc2c(S(=O)(=O)NC(=O)Nc3c4c(c(F)c5c3CCC5)CCC4)cnn2C1 | < 100 | – | –
5 | Cc1ccc2cccnc2c1NC(=O)NS(=O)(=O)c1cnn2c1OCCC2 | – | – | PBMC IL-1β IC50 (NLRP3 inflammasome; LPS, nigericin): No Curve; CTG protective IC50 [1, 3]: No Curve
6 | CC(C)OC1COc2c(S(=O)(=O)NC(=O)Nc3c4c(cc5c3CCC5)CCC4)cnn2C1 (stereo not drawn) | 100 to 1000 | < 100 | –
7 | CC[C@@H]1COc2c(S(=O)(=O)NC(=O)Nc3c4c(cc5c3CCC5)CCC4)cnn2C1 | 100 to 1000 | 100 to 1000 | –
8 | CCN[C@@H]1COc2c(S(=O)(=O)NC(=O)Nc3c4c(cc5c3CCC5)CCC4)cnn2C1 | 1000 to 10000 | 1000 to 10000 | –
9 | CC1CCn2ncc(S(=O)(=O)NC(=O)Nc3c4c(cc5c3CCC5)CCC4)c2O1 (stereo not drawn) [drawing 505] | – | – | IC50 (NLRP3 inflammasome; [4]): < 100 nM
10 | CN1CCn2nc(S(=O)(=O)NC(=O)Nc3c4c(cc5c3CCC5)CCC4)cc2C1=O | 1000 to 10000 | – | –
11 | CO[C@H]1COc2c(S(=O)(=O)NC(=O)Nc3c(C(C)C)cc(F)cc3C(C)C)cnn2C1 | < 100 | < 100 | –
12 | CC1(C)Cc2cccc(NC(=O)NS(=O)(=O)c3cnn4c3OCCC4)c2O1 | > 10000 | – | –
13 | O=C(Nc1c2c(cc3c1CCC3)CCC2)NS(=O)(=O)c1ncn2c1OCCC2 | 100 to 1000 | 100 to 1000 | –
14 | O=C(Nc1c2c(cc3c1CCC3)CCC2)NS(=O)(=O)c1cnn2c1OCC2 | 100 to 1000 | < 100 | –
15 | O=C(Nc1c2c(c(Cl)c3c1CCC3)CCC2)NS(=O)(=O)c1cnn2c1OCCC2 [drawing 520] | < 100 | – | –
16 | O=C(Nc1c2c(cc3c1CCC3)CCC2)NS(=O)(=O)c1cnn2c1OCC(F)C2 (stereo not drawn) [drawing 503] | – | – | IC50 (NLRP3 inflammasome; [4]): 100 to 1000 nM
17 | CC(C)c1cc(F)cc(C(C)C)c1NC(=O)NS(=O)(=O)c1cnn2c1OCCC2 | 100 to 1000 | 100 to 1000 | –
18 | CC1CCOc2c(S(=O)(=O)NC(=O)Nc3c4c(cc5c3CCC5)CCC4)cnn21 (stereo not drawn) [drawing 516] | < 100 | < 100 | –
19 | CC1(C)COc2c(S(=O)(=O)NC(=O)Nc3c4c(c(Cl)c5c3CCC5)CCC4)cnn2C1 | 100 to 1000 | – | –
20 | CC1(O)COc2c(S(=O)(=O)NC(=O)Nc3c4c(cc5c3CCC5)CCC4)cnn2C1 (stereo not drawn) | 100 to 1000 | < 100 | –
21 | O=C(Nc1c2c(c(F)c3c1CCC3)CCC2)NS(=O)(=O)c1cnn2c1OCCC2 | < 100 | < 100 | –

Row | SMILES | IC50 (NLRP3 inflammasome; [2]) [nM] | IC50 [1, 3] [nM] | further results
22 | O=C(Nc1c(C2CC2)cc(Cl)c2c1CCC2)NS(=O)(=O)c1cnn2c1OCCC2 | 100 to 1000 | 1000 to 10000 | –
23 | NCC1COc2c(S(=O)(=O)NC(=O)Nc3c4c(cc5c3CCC5)CCC4)cnn2C1 (stereo not drawn) | 100 to 1000 | – | –
24 | CN1CCn2nc(S(=O)(=O)NC(=O)Nc3c4c(cc5c3CCC5)CCC4)cc2C1 | 1000 to 10000 | 100 to 1000 | –
25 | COC1(C)COc2c(S(=O)(=O)NC(=O)Nc3c4c(cc5c3CCC5)CCC4)cnn2C1 (stereo not drawn) | 100 to 1000 | 100 to 1000 | –
26 | CN1CCn2ncc(S(=O)(=O)NC(=O)Nc3c4c(cc5c3CCC5)CCC4)c2C1=O | – | – | IC50 [1]: 1000 to 10000 nM
27 | CC[C@H]1COc2c(S(=O)(=O)NC(=O)Nc3c4c(cc5c3CCC5)CCC4)cnn2C1 | < 100 | < 100 | –
28 | O=C(Nc1c2c(cc3c1CCC3)CCC2)NS(=O)(=O)c1cnn2c1OCC1(COC1)C2 [drawing 510] | 100 to 1000 | – | –
29 | O=C(Nc1c2c(cc3c1CCC3)CCC2)NS(=O)(=O)c1cnn2c1C(F)CCC2 (stereo not drawn) | 100 to 1000 | < 100 | –
30 | O=C(Nc1c2c(cc3c1CCC3)CCC2)NS(=O)(=O)c1cnn2c1OCC1(COC1)C2 [drawing 496] | – | – | IC50 (NLRP3 inflammasome; [4]): 100 to 1000 nM
31 | CCNC1COc2c(S(=O)(=O)NC(=O)Nc3c4c(cc5c3CCC5)CCC4)cnn2C1 (stereo not drawn) | < 100 | < 100 | –
32 | CCOC1COc2c(S(=O)(=O)NC(=O)Nc3c4c(cc5c3CCC5)CCC4)cnn2C1 (stereo not drawn) | < 100 | < 100 | –
33 | COC1CN(C2COc3c(S(=O)(=O)NC(=O)Nc4c5c(cc6c4CCC6)CCC5)cnn3C2)C1 (stereo not drawn) | – | – | IC50 [1]: < 100 nM
34 | Cc1ccc(S(=O)(=O)N2CC3(COc4c(S(=O)(=O)NC(=O)Nc5c6c(cc7c5CCC7)CCC6)cnn4C3)C2)cc1 | 1000 to 10000 | 100 to 1000 | –
35 | CNCC1COc2c(S(=O)(=O)NC(=O)Nc3c4c(cc5c3CCC5)CCC4)cnn2C1 (stereo not drawn) | 1000 to 10000 | 1000 to 10000 | –
36 | O=C(Nc1c2c(cc3c1CCC3)CCC2)NS(=O)(=O)c1cnn2c1OCC(O)C2 (stereo not drawn) [drawing 500] | – | – | IC50 (NLRP3 inflammasome; [4]): < 100 nM
37 | CO[C@H]1COc2c(S(=O)(=O)NC(=O)Nc3c(C(C)C)cc(Cl)cc3C(C)C)cnn2C1 | 100 to 1000 | 100 to 1000 | –
38 | COCC1COc2c(S(=O)(=O)NC(=O)Nc3c4c(cc5c3CCC5)CCC4)cnn2C1 (stereo not drawn) | 100 to 1000 | < 100 | –
39 | CN(C)CC1COc2c(S(=O)(=O)NC(=O)Nc3c4c(cc5c3CCC5)CCC4)cnn2C1 (stereo not drawn) | – | – | IC50 [1]: 1000 to 10000 nM
40 | CC1(C)COc2c(S(=O)(=O)NC(=O)Nc3c4c(cc5c3CCC5)CCC4)cnn2C1 [drawing 499] | – | – | IC50 (NLRP3 inflammasome; [4]): < 100 nM
41 | COC1CN([C@@H]2COc3c(S(=O)(=O)NC(=O)Nc4c5c(cc6c4CCC6)CCC5)cnn3C2)C1 | – | – | IC50 [1]: < 100 nM
42 | O=C(Nc1c2c(cc3c1CCC3)CCC2)NS(=O)(=O)c1cnn2c1OCC(CNC(=O)C(F)(F)F)C2 (stereo not drawn) | < 100 | – | –

Row | SMILES | IC50 (NLRP3 inflammasome; [2]) [nM] | IC50 [1, 3] [nM] | further results
43 | CN[C@@H]1COc2c(S(=O)(=O)NC(=O)Nc3c4c(cc5c3CCC5)CCC4)cnn2C1 | – | – | IC50 [1]: 100 to 1000 nM
44 | O=C(Nc1c2c(c(Cl)c3c1CCC3)CCC2)NS(=O)(=O)c1cnn2c1OCCC2 [drawing 506] | – | – | IC50 (NLRP3 inflammasome; [4]): < 100 nM
45 | C[C@@H]1COc2c(S(=O)(=O)NC(=O)Nc3c4c(cc5c3CCC5)CCC4)cnn2C1 | < 100 | < 100 | –
46 | O=C(Nc1c2c(cc3c1CCC3)CCC2)NS(=O)(=O)c1cnn2c1OC[C@@H](O)C2 | 100 to 1000 | < 100 | –
47 | NC1COc2c(S(=O)(=O)NC(=O)Nc3c4c(cc5c3CCC5)CCC4)cnn2C1 (stereo not drawn) | 100 to 1000 | < 100 | –
48 | Cc1nn2c(c1S(=O)(=O)NC(=O)Nc1c3c(cc4c1CCC4)CCC3)OCCC2 | 100 to 1000 | < 100 | –
49 | COc1ccc2cccnc2c1NC(=O)NS(=O)(=O)c1cnn2c1OCCC2 | – | – | PBMC IL-1β IC50 (NLRP3 inflammasome; LPS, nigericin): No Curve
50 | O=C(Nc1c2c(cc3c1CCC3)CCC2)NS(=O)(=O)c1cnn2c1OCC(F)C2 (stereo not drawn) [drawing 517] | 100 to 1000 | < 100 | –
51 | CC(C)c1cccc(C(C)C)c1NC(=O)NS(=O)(=O)c1cnn2c1OCCC2 [drawing 511] | 1000 to 10000 | – | –
52 | CC(C)c1cccc(C(C)C)c1NC(=O)NS(=O)(=O)c1cnn2c1OCCC2 [drawing 497] | – | – | IC50 (NLRP3 inflammasome; [4]): 1000 to 10000 nM
53 | CN[C@H]1COc2c(S(=O)(=O)NC(=O)Nc3c(C(C)C)cc(F)cc3C(C)C)cnn2C1 | < 100 | – | –
54 | O=S(=O)(NC(=S)Nc1c2c(cc3c1CCC3)CCC2)c1cnn2c1OCCC2 [drawing 494] | – | – | IC50 (NLRP3 inflammasome; [4]): 1000 to 10000 nM
55 | COC1CN([C@H]2COc3c(S(=O)(=O)NC(=O)Nc4c5c(cc6c4CCC6)CCC5)cnn3C2)C1 [drawing 580] | – | – | IC50 [1]: < 100 nM
56 | CC(C)c1cc(Cl)cc(C(C)C)c1NC(=O)NS(=O)(=O)c1cnn2c1OCCC2 [drawing 512] | 100 to 1000 | – | –
57 | O=C(Nc1c2c(cc3c1CCC3)CCC2)NS(=O)(=O)c1cnn2c1OCCCC2 [drawing 501] | – | – | IC50 (NLRP3 inflammasome; [4]): 100 to 1000 nM
58 | COC1COc2c(S(=O)(=O)NC(=O)Nc3c4c(cc5c3CCC5)CCC4)cnn2C1 (stereo not drawn) [drawing 504] | – | – | IC50 (NLRP3 inflammasome; [4]): < 100 nM
59 | CN(C)[C@@H]1COc2c(S(=O)(=O)NC(=O)Nc3c4c(cc5c3CCC5)CCC4)cnn2C1 | – | – | IC50 [1]: > 10000 nM
60 | CC1CCOc2c(S(=O)(=O)NC(=O)Nc3c4c(cc5c3CCC5)CCC4)cnn21 (stereo not drawn) [drawing 502] | – | – | IC50 (NLRP3 inflammasome; [4]): 100 to 1000 nM
61 | CC(C)c1cc(Cl)cc(C(C)C)c1NC(=O)NS(=O)(=O)c1cnn2c1OCCC2 [drawing 498] | – | – | IC50 (NLRP3 inflammasome; [4]): 100 to 1000 nM
